Tests used:
[1] = target: GDP-bound NRAS wild-type protein (Homo sapiens, UniProt P01111); experiment: Binding to NRAS by surface plasmon resonance (SPR), KD and KD ratio to KRAS; conditions: ratio of KD for GDP-bound NRAS wild-type protein to KD for KRAS
Summary of the method: (§1)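 GDP-bound biotin-Avi RAS captured at ~100–300 RU, 30°C, pH 7.4 HBS containing 10 µM GDP, 10 mM MgCl2, 1 mM DTT, 0.01% Tween 20 and 4% DMSO. KD by 1:1 fitting.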

HRAS wild-type protein = HRAS wild-type protein (Homo sapiens, UniProt P01112); experiment: Binding to HRAS by surface plasmon resonance (SPR), KD and KD ratio to KRAS; conditions: ratio of KD for HRAS wild-type protein to KD for KRAS
Sequence of HRAS wild-type protein (P01112 whole entry): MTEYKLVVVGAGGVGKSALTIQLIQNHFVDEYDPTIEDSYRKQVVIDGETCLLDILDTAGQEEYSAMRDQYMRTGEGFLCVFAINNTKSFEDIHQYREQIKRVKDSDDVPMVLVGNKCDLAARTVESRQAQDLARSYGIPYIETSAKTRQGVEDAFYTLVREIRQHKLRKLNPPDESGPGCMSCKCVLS
Summary of the method: as §1

[2] = system: human lung cancer strain NCI-H441; assay type: cell-based
Summary of the method: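 Readout: […] after the ATP-based reagent. Compound: serial dilutions in dimethyl sulfoxide.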

Sequence of GDP-bound NRAS wild-type protein (P01111 whole entry): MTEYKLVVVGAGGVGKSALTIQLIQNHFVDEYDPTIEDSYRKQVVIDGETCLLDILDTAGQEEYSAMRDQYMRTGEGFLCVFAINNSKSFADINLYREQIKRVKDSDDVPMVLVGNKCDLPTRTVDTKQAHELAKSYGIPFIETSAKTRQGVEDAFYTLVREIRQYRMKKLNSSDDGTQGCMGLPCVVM

In the case of `CCO[C@@H]1C[C@H]2C(=O)NC3(CCC3)C(=O)N(C)[C@@H](C3CCCC3)C(=O)N(C)[C@H](C(=O)N(C)C)CC(=O)N(C)[C@@H](CC(C)C)C(=O)N[C@@H]([C@@H](C)CC)C(=O)N3CC[C@H]3C(=O)N(C)[C@H]3C[C@@H](C)CCN(C3=O)[C@@H](Cc3ccc(C(F)(F)F)cc3)C(=O)N(C)CC(=O)N[C@@H](CCc3cc(F)c(C(F)(F)F)c(F)c3)C(=O)N2C1` [PP1019], the “NRAS /KRAS” value [1] is reported as “C (A compound having a KD ratio of 0.1 or more and less than 3 is denoted as C)”, the “HRAS /KRAS” value (HRAS wild-type protein) is reported as “B (a compound having 3 or more and less than 10 is denoted as B)” and the IC50 [2] is reported as 0.0074 µM.

In the case of `CCO[C@@H]1C[C@H]2C(=O)NC3(CCC3)C(=O)N(C)[C@@H](C3CCCC3)C(=O)N(C)[C@H](C(=O)N(C)C)CC(=O)N(C)[C@@H](CC)C(=O)N[C@@H]([C@@H](C)CC)C(=O)N(C)CC(=O)N(C)[C@H]3C[C@@H](C)CCN(C3=O)[C@@H](Cc3ccc(C(F)(F)F)cc3)C(=O)N(C)CC(=O)N[C@@H](CCc3cc(F)c(C(F)(F)F)c(F)c3)C(=O)N2C1` [PP1020], the “NRAS /KRAS” value [1] is reported as “C (A compound having a KD ratio of 0.1 or more and less than 3 is denoted as C)”, the “HRAS /KRAS” value (HRAS wild-type protein) is reported as “B (a compound having 3 or more and less than 10 is denoted as B)” and the IC50 [2] is reported as 0.018 µM.

For `CCO[C@@H]1C[C@H]2C(=O)NC3(CCC3)C(=O)N(C)[C@@H](C3CCCC3)C(=O)N(C)[C@H](C(=O)N(C)C)CC(=O)N(C)[C@@H](CC)C(=O)N[C@@H]([C@@H](C)CC)C(=O)N3CC[C@H]3C(=O)N(C)[C@H]3C[C@@H](C)CCN(C3=O)[C@@H](Cc3ccc(C(F)(F)F)cc3)C(=O)N(C)CC(=O)N[C@@H](CCc3cc(F)c(C(F)(F)F)c(F)c3)C(=O)N2C1` [PP1021], the “NRAS /KRAS” value [1] was “C (A compound having a KD ratio of 0.1 or more and less than 3 is denoted as C)”, the “HRAS /KRAS” value (HRAS wild-type protein) was “B (a compound having 3 or more and less than 10 is denoted as B)” and the IC50 [2] was 0.014 µM.

For `CCO[C@@H]1C[C@H]2C(=O)NC3(CCCC3)C(=O)N(C)[C@@H](C3CCCC3)C(=O)N(C)[C@H](C(=O)N(C)C)CC(=O)N(C)[C@@H](CC)C(=O)N[C@@H]([C@@H](C)CC)C(=O)N(C)CC(=O)N(C)[C@H]3C[C@@H](C)CCN(C3=O)[C@@H](Cc3ccc(C(F)(F)F)cc3)C(=O)N(C)CC(=O)N[C@@H](CCc3cc(F)c(C(F)(F)F)c(F)c3)C(=O)N2C1` [PP1022], the “NRAS /KRAS” value [1] was “C (A compound having a KD ratio of 0.1 or more and less than 3 is denoted as C)”, the “HRAS /KRAS” value (HRAS wild-type protein) was “B (a compound having 3 or more and less than 10 is denoted as B)” and the IC50 [2] was 0.0175 µM.

With `CCO[C@@H]1C[C@H]2C(=O)NC3(CCCC3)C(=O)N(C)[C@@H](C3CCCC3)C(=O)N(C)[C@H](C(=O)N3CCOCC3)CC(=O)N(C)[C@@H](CC(C)C)C(=O)N[C@@H]([C@@H](C)CC)C(=O)N(C)CC(=O)N(C)[C@H]3C[C@@H](C)CCN(C3=O)[C@@H](Cc3ccc(C(F)(F)F)cc3)C(=O)N(C)CC(=O)N[C@@H](CCc3cc(F)c(C(F)(F)F)c(F)c3)C(=O)N2C1` [PP1024] the “NRAS /KRAS” value [1] was “B (a compound having 3 or more and less than 10 is denoted as B)”, the “HRAS /KRAS” value (HRAS wild-type protein) was “B (a compound having 3 or more and less than 10 is denoted as B)” and the IC50 [2] was 0.0127 µM.

`CCO[C@@H]1C[C@H]2C(=O)NC3(CCC3)C(=O)N(C)[C@@H](C3CCCC3)C(=O)N(C)[C@H](C(=O)N3CCOCC3)CC(=O)N(C)[C@@H](CC(C)C)C(=O)N[C@@H]([C@@H](C)CC)C(=O)N(C)CC(=O)N(C)[C@H]3C[C@@H](C)CCN(C3=O)[C@@H](Cc3ccc(C(F)(F)F)cc3)C(=O)N(C)CC(=O)N[C@@H](CCc3cc(F)c(C(F)(F)F)c(F)c3)C(=O)N2C1` [PP1025] was tested, and the “NRAS /KRAS” value [1] was “C (A compound having a KD ratio of 0.1 or more and less than 3 is denoted as C)”, the “HRAS /KRAS” value (HRAS wild-type protein) was “B (a compound having 3 or more and less than 10 is denoted as B)” and the IC50 [2] was 0.0107 µM.

For `CCO[C@@H]1C[C@H]2C(=O)NC3(CCC3)C(=O)N(C)[C@@H](C3CCCC3)C(=O)N(C)[C@H](C(=O)N3CCOCC3)CC(=O)N(C)[C@@H](CC)C(=O)N[C@@H]([C@@H](C)CC)C(=O)N(C)CC(=O)N(C)[C@H]3C[C@@H](C)CCN(C3=O)[C@@H](Cc3ccc(C(F)(F)F)cc3)C(=O)N(C)CC(=O)N[C@@H](CCc3cc(F)c(C(F)(F)F)c(F)c3)C(=O)N2C1` [PP1027], the “NRAS /KRAS” value [1] was “C (A compound having a KD ratio of 0.1 or more and less than 3 is denoted as C)”, the “HRAS /KRAS” value (HRAS wild-type protein) was “B (a compound having 3 or more and less than 10 is denoted as B)” and the IC50 [2] was 0.0072 µM.

`CCO[C@@H]1C[C@H]2C(=O)NC3(CCC3)C(=O)N(C)[C@@H](C3CCCC3)C(=O)N(C)[C@H](C(=O)N3CCOCC3)CC(=O)N(C)[C@@H](CC)C(=O)N[C@@H]([C@@H](C)CC)C(=O)N3CC[C@H]3C(=O)N(C)[C@H]3C[C@@H](C)CCN(C3=O)[C@@H](Cc3ccc(C(F)(F)F)cc3)C(=O)N(C)CC(=O)N[C@@H](CCc3cc(F)c(C(F)(F)F)c(F)c3)C(=O)N2C1` [PP1028] was tested, and the “NRAS /KRAS” value [1] was “B (a compound having 3 or more and less than 10 is denoted as B)”, the “HRAS /KRAS” value (HRAS wild-type protein) was “B (a compound having 3 or more and less than 10 is denoted as B)” and the IC50 [2] was 0.0173 µM.

`CCO[C@@H]1C[C@H]2C(=O)NC3(CCCC3)C(=O)N(C)[C@@H](C3CCCC3)C(=O)N(C)[C@H](C(=O)N3CCOCC3)CC(=O)N(C)[C@@H](CC)C(=O)N[C@@H]([C@@H](C)CC)C(=O)N(C)CC(=O)N(C)[C@H]3C[C@@H](C)CCN(C3=O)[C@@H](Cc3ccc(C(F)(F)F)cc3)C(=O)N(C)CC(=O)N[C@@H](CCc3cc(F)c(C(F)(F)F)c(F)c3)C(=O)N2C1` [PP1029] was tested, and the “NRAS /KRAS” value [1] was “C (A compound having a KD ratio of 0.1 or more and less than 3 is denoted as C)”, the “HRAS /KRAS” value (HRAS wild-type protein) was “B (a compound having 3 or more and less than 10 is denoted as B)” and the IC50 [2] was 0.0243 µM.

`CCO[C@@H]1C[C@H]2C(=O)NC3(CCCC3)C(=O)N(C)[C@@H](C3CCCC3)C(=O)N(C)[C@H](C(=O)N(C)C)CC(=O)N(C)[C@@H](CC(C)C)C(=O)N[C@@H]([C@@H](C)CC)C(=O)N(C)CC(=O)N(C)[C@H]3CC(C)=CCN(C3=O)[C@@H](Cc3ccc(C(F)(F)F)cc3)C(=O)N(C)CC(=O)N[C@@H](CCc3cc(F)c(C(F)(F)F)c(F)c3)C(=O)N2C1` [PP1031] was tested, and the “NRAS /KRAS” value [1] was “C (A compound having a KD ratio of 0.1 or more and less than 3 is denoted as C)”, the “HRAS /KRAS” value (HRAS wild-type protein) was “C (A compound having a KD ratio of 0.1 or more and less than 3 is denoted as C)” and the IC50 [2] was 0.0862 µM.

In the case of `CCO[C@@H]1C[C@H]2C(=O)NC3(CCC3)C(=O)N(C)[C@@H](C3CCCC3)C(=O)N(C)[C@H](C(=O)N(C)C)CC(=O)N(C)[C@@H](CC(C)C)C(=O)N[C@@H]([C@@H](C)CC)C(=O)N3CC[C@H]3C(=O)N(C)[C@H]3CC(C)=CCN(C3=O)[C@@H](Cc3ccc(C(F)(F)F)cc3)C(=O)N(C)CC(=O)N[C@@H](CCc3cc(F)c(C(F)(F)F)c(F)c3)C(=O)N2C1` [PP1033], the “NRAS /KRAS” value [1] is reported as “C (A compound having a KD ratio of 0.1 or more and less than 3 is denoted as C)”, the “HRAS /KRAS” value (HRAS wild-type protein) is reported as “C (A compound having a KD ratio of 0.1 or more and less than 3 is denoted as C)” and the IC50 [2] is reported as 0.0672 µM.

For `CCO[C@@H]1C[C@H]2C(=O)NC3(CCC3)C(=O)N(C)[C@@H](C3CCCC3)C(=O)N(C)[C@H](C(=O)N(C)C)CC(=O)N(C)[C@@H](CC)C(=O)N[C@@H]([C@@H](C)CC)C(=O)N(C)CC(=O)N(C)[C@H]3CC(C)=CCN(C3=O)[C@@H](Cc3ccc(C(F)(F)F)cc3)C(=O)N(C)CC(=O)N[C@@H](CCc3cc(F)c(C(F)(F)F)c(F)c3)C(=O)N2C1` [PP1034], the “NRAS /KRAS” value [1] was “C (A compound having a KD ratio of 0.1 or more and less than 3 is denoted as C)”, the “HRAS /KRAS” value (HRAS wild-type protein) was “C (A compound having a KD ratio of 0.1 or more and less than 3 is denoted as C)” and the IC50 [2] was 0.0968 µM.

With `CCO[C@@H]1C[C@H]2C(=O)NC3(CCC3)C(=O)N(C)[C@@H](C3CCCC3)C(=O)N(C)[C@H](C(=O)N(C)C)CC(=O)N(C)[C@@H](CC)C(=O)N[C@@H]([C@@H](C)CC)C(=O)N3CC[C@H]3C(=O)N(C)[C@H]3CC(C)=CCN(C3=O)[C@@H](Cc3ccc(C(F)(F)F)cc3)C(=O)N(C)CC(=O)N[C@@H](CCc3cc(F)c(C(F)(F)F)c(F)c3)C(=O)N2C1` [PP1035] the “NRAS /KRAS” value [1] was “C (A compound having a KD ratio of 0.1 or more and less than 3 is denoted as C)”, the “HRAS /KRAS” value (HRAS wild-type protein) was “C (A compound having a KD ratio of 0.1 or more and less than 3 is denoted as C)” and the IC50 [2] was 0.128 µM.

With `CCO[C@@H]1C[C@H]2C(=O)NC3(CCCC3)C(=O)N(C)[C@@H](C3CCCC3)C(=O)N(C)[C@H](C(=O)N(C)C)CC(=O)N(C)[C@@H](CC)C(=O)N[C@@H]([C@@H](C)CC)C(=O)N(C)CC(=O)N(C)[C@H]3CC(C)=CCN(C3=O)[C@@H](Cc3ccc(C(F)(F)F)cc3)C(=O)N(C)CC(=O)N[C@@H](CCc3cc(F)c(C(F)(F)F)c(F)c3)C(=O)N2C1` [PP1036] the “NRAS /KRAS” value [1] was “C (A compound having a KD ratio of 0.1 or more and less than 3 is denoted as C)”, the “HRAS /KRAS” value (HRAS wild-type protein) was “C (A compound having a KD ratio of 0.1 or more and less than 3 is denoted as C)” and the IC50 [2] was 0.15 µM.

With `CCO[C@@H]1C[C@H]2C(=O)NC3(CCCC3)C(=O)N(C)[C@@H](C3CCCC3)C(=O)N(C)[C@H](C(=O)N3CCOCC3)CC(=O)N(C)[C@@H](CC(C)C)C(=O)N[C@@H]([C@@H](C)CC)C(=O)N(C)CC(=O)N(C)[C@H]3CC(C)=CCN(C3=O)[C@@H](Cc3ccc(C(F)(F)F)cc3)C(=O)N(C)CC(=O)N[C@@H](CCc3cc(F)c(C(F)(F)F)c(F)c3)C(=O)N2C1` [PP1038] the “NRAS /KRAS” value [1] was “C (A compound having a KD ratio of 0.1 or more and less than 3 is denoted as C)”, the “HRAS /KRAS” value (HRAS wild-type protein) was “C (A compound having a KD ratio of 0.1 or more and less than 3 is denoted as C)” and the IC50 [2] was 0.188 µM.

— EP4603105A1, “PHARMACEUTICAL COMPOSITION CONTAINING CYCLIC COMPOUND HAVING SELECTIVE KRAS INHIBITORY EFFECT AGAINST HRAS AND NRAS” (CHUGAI SEIYAKU KABUSHIKI KAISHA, priority 2022, dated 2024)
